How the values were obtained:
[1] = Optical properties: UV-visible spectra, fluorescence excitation and emission; type: physicochemical; details: for Stokes shift: (1/λex − 1 λem); for λem: fluorescence emission wavelength; for λex: fluorescence excitation wavelength
From the text: The optical properties of several novel chromophores were investigated. UV-visible spectra reveal an intense absorption in the UV region for all the compounds evaluated.

[2] = UV absorbance and fluorescence of ribonucleoside analogues in DMSO (molar extinction coefficient, quantum yield); type: physicochemical; details: for Quantum yield: relative to quinine sulphate and anthracene standards
From the text: UV absorbance and fluorescence excitation and emission data were used to determine the molar extinction coefficient and fluorescence quantum yield of a several adenosine and guanosine ribonucleoside analogues in DMSO (see the Table below). The data acquired support the concept that the fluorescence properties of these analogues can be tuned by altering the electron-donating or electron-withdrawing R-group on the terminal phenylalkyne. Fourteen electron-donating or electron-withdrawing R-groups were coupled to purine bases at the 8-position. […] This makes the analogues extremely useful for the quantification of analogue-containing nucleic acid products in a DNA or RNA background. […] The position (ortho, meta or para) of the R-group on the phenyl ring can also be used to tune the fluorescent properties of the analogues. The ring position of the R-group has a smaller effect on the fluorescent properties of the analogues. Greater changes in the excitation/emission wavelength, molar extinction coefficient and quantum yield can be induced by changing the type of R-group (electron-donating vs. electron-withdrawing) as compared to the position of a R-group on the phenyl ring (ortho, meta or para). The quantum yields of the unphosphorylated analogues were measured relative to quinine sulphate and anthracene standards. […] This provides additional support for the idea that the purine bases can both push and pull electrons in π-conjugated systems.

T7 RNA polymerase = T7 RNA polymerase (Escherichia phage T7, UniProt P00573); assay: Gel-based in vitro transcription assay with the ATP analogue as substrate; type: biochemical, bacteriophage T7; details: for Length of RNA products observed: Mg^2+ co-factor, analogue in place of ATP
From the text: (§1) In vitro assays of hepatitis C virus (HCV) and bacteriophage T7 RNA polymerases have been performed using adenosine ribonucleotide triphosphate analogues of the present invention as a substrate (in place of natural ATP). Both unincorporated and incorporated fluorescent purine ribonucleotide analogues could be visualised directly under UV trans-illumination in either agarose or polyacrylamide gels without ethidium bromide staining. The RNA products generated in the transcription assay were characterised by 6% or 20% polyacrylamide gel electrophoresis (PAGE) under denaturing (7 M urea) conditions. […] The expected full-length (˜500 bases) RNA products were not observed by denaturing 6% PAGE. Short RNA products were separated by denaturing 20% PAGE. […] The analogues are also incorporated at a slower rate than the natural substrates. Incorporation of the first and second adenosine (underlined adenosine residues in the Table below) into the RNA product occurs with two templates tested, but adjacent adenosine analogues terminate transcription before the third adenosine in each template is incorporated. Two adjacent adenosine analogues may be too large for the active site, thus RNA synthesis is terminated and the product released.
RNA products formed using the HCV 3′-UTR and T7 φ13 promoter DNA templates in gel-based transcription assays of T7 RNA polymerase and 8-phenylethynyl-adenosine triphosphate: […]

HCV RNA polymerase = target: T1, HCV RNA polymerase (Hepatitis C virus genotype 1a, UniProt P27958); assay: In vitro RNA polymerase assay with the ATP analogue as substrate; type: biochemical
T1 construct: results with HCV and T7 RNA polymerases using 8-phenylethynyl-adenosine triphosphate as a substrate
From the text: as §1

[3] = Mg^2+ as co-factor, depending on DNA template

Chain of T7 RNA polymerase (P00573 whole entry): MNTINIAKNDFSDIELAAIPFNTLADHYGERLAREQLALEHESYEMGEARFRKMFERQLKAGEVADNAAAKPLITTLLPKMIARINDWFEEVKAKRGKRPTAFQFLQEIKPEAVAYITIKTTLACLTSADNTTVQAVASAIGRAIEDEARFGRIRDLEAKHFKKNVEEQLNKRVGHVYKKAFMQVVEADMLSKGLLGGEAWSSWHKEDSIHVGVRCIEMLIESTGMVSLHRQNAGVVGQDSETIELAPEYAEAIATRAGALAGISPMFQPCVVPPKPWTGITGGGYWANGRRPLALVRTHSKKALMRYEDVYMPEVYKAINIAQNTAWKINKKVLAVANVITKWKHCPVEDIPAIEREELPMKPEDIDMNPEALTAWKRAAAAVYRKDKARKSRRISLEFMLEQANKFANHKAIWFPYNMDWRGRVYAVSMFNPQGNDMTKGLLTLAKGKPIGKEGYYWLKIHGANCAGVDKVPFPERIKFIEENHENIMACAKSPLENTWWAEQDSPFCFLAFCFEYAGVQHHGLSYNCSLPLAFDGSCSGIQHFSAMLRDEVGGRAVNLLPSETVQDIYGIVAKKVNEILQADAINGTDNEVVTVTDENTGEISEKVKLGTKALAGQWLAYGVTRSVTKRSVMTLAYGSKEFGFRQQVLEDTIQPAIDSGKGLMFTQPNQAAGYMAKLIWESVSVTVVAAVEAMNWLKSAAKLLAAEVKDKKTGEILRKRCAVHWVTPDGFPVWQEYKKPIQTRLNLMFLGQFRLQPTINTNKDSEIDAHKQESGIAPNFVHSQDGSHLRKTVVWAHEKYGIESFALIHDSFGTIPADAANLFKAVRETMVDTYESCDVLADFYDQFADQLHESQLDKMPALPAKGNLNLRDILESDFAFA
T1 sequence (P27958 2421-3011): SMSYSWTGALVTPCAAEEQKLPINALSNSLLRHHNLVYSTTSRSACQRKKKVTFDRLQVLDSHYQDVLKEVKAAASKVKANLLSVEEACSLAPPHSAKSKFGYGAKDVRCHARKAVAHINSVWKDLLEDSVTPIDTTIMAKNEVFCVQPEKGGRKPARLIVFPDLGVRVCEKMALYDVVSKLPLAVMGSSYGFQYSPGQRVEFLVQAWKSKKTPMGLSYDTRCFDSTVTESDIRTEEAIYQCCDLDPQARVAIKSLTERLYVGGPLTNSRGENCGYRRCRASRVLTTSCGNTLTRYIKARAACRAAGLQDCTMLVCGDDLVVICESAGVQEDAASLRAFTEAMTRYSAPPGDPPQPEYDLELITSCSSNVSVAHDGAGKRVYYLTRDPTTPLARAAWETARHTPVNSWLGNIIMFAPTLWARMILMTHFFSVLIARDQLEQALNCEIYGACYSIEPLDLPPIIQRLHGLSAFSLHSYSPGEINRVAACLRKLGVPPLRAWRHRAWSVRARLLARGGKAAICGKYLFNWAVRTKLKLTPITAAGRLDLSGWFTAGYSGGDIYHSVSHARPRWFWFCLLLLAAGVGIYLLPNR

Row | Compound | Stokes shift [1] | λem [1] | λex [1] | melting point | Molar absorption coefficient [2] | Wavelength at maximum in UV absorption [2] | Quantum yield [2] | UV-visible spectrum shift relative to compound 5a (parent) [1] | HOMO-LUMO gap relative to compound 5a ([1]; inferred from UV-visible spectrum) | Wavelength at fluorescence emission maximum [2] | Length of RNA products observed (T7 RNA polymerase; HCV 3′-UTR DNA template) | RNA transcripts yielded with analogue as substrate (T7 RNA polymerase; [3]) | Length of RNA products observed (T7 RNA polymerase; T7 φ13 promoter DNA template) | Expected full-length (˜500 bases) RNA products (T7 RNA polymerase; denaturing 6% PAGE) | Length of small RNA products into which the analogue is incorporated (T7 RNA polymerase; denaturing 20% PAGE) | RNA transcripts yielded with analogue as substrate (HCV RNA polymerase; [3]) | Expected full-length (˜500 bases) RNA products (HCV RNA polymerase; denaturing 6% PAGE)
1 | COc1ccc(C#Cc2nc3c(=O)[nH]c(N)nc3n2[C@@H]2O[C@H](CO)[C@@H](O)[C@H]2O)cc1 [Compound 5c, 8-(4-Methoxyphenylethynyl)guanosine] | 2749 cm⁻¹ | 402 nm | 362 nm | 220 to 224 °C (dec.) | 22569 M⁻¹ cm⁻¹ | 330 nm | 1.2% | red-shifted | smaller HOMO-LUMO gap | 398 nm | – | – | – | – | – | – | –
2 | Nc1ncnc2c1nc(C#Cc1ccccc1)n2[C@@H]1O[C@H](COP(=O)(O)OP(=O)(O)OP(=O)(O)O)[C@@H](O)[C@H]1O [8-phenylethynyl-adenosine triphosphate] | – | – | – | – | – | – | – | – | – | – | 6 mer, 9 mer | short RNA transcripts | 4 mer, 6 mer | not observed | 4-9 bases | short RNA transcripts | not observed
3 | CSc1ccc(C#Cc2nc3c(=O)[nH]c(N)nc3n2[C@@H]2O[C@H](CO)[C@@H](O)[C@H]2O)cc1 [Compound 5d, 8-(4-Methylsulfanylphenylethynyl)guanosine] | 3264 cm⁻¹ | 426 nm | 374 nm | 214 to 216 °C (dec.) | 19832 M⁻¹ cm⁻¹ | 343 nm | 4.5% | – | – | 425 nm | – | – | – | – | – | – | –
4 | Cc1ccc(C#Cc2nc3c(=O)[nH]c(N)nc3n2[C@@H]2O[C@H](CO)[C@@H](O)[C@H]2O)cc1 [Compound 5b, 8-(4′-Methylphenylethynyl)guanosine] | 3452 cm⁻¹ | 415 nm | 363 nm | 222 to 226 °C (dec.) | 16591 M⁻¹ cm⁻¹ | 331 nm | 3.1% | – | – | 409 nm | – | – | – | – | – | – | –
5 | Nc1nc2c(nc(C#Cc3ccccc3)n2[C@@H]2O[C@H](CO)[C@@H](O)[C@H]2O)c(=O)[nH]1 [Compound 5a, 8-(Phenylethynyl)guanosine] | 4196 cm⁻¹ | 438 nm | 370 nm | 234 to 236 °C (dec.) | – | 330 nm | 2.7% | – | – | 416 nm | – | – | – | – | – | – | –
6 | Nc1ncnc2c1nc(C#Cc1ccccc1)n2[C@@H]1O[C@H](CO)[C@@H](O)[C@H]1O [Compound 6a, 8-(Phenylethynyl)adenosine] | 3383 cm⁻¹ | 397 nm | 350 nm | 168 to 170 °C (dec.) | – | 322 nm | 49% | – | – | 398 nm | – | – | – | – | – | – | –

Second part, led by results:

Row | Stokes shift [1] | λem [1] | λex [1] | melting point | Molar absorption coefficient [2] | Wavelength at maximum in UV absorption [2] | Quantum yield [2] | UV-visible spectrum shift relative to compound 5a (parent) [1] | HOMO-LUMO gap relative to compound 5a ([1]; inferred from UV-visible spectrum) | Wavelength at fluorescence emission maximum [2] | Compound | Length of RNA products observed (T7 RNA polymerase; HCV 3′-UTR DNA template) | RNA transcripts yielded with analogue as substrate (T7 RNA polymerase; [3]) | Length of RNA products observed (T7 RNA polymerase; T7 φ13 promoter DNA template) | Expected full-length (˜500 bases) RNA products (T7 RNA polymerase; denaturing 6% PAGE) | Length of small RNA products into which the analogue is incorporated (T7 RNA polymerase; denaturing 20% PAGE) | RNA transcripts yielded with analogue as substrate (HCV RNA polymerase; [3]) | Expected full-length (˜500 bases) RNA products (HCV RNA polymerase; denaturing 6% PAGE)
7 | 1921 cm⁻¹ | 396 nm | 368 nm | 184 to 188 °C (dec.) | 26019 M⁻¹ cm⁻¹ | 338 nm | 67% | – | – | – | CSc1ccc(C#Cc2nc3c(N)ncnc3n2[C@@H]2O[C@H](CO)[C@@H](O)[C@H]2O)cc1 [Compound 6d, 8-(4-Methylsulfanylphenylethynyl)adenosine] | – | – | – | – | – | – | –
8 | 4897 cm⁻¹ | 440 nm | 362 nm | 196 to 198 °C (dec.) | – | 333 nm | 8.8% | – | – | 436 nm | Nc1ncnc2c1nc(C#Cc1ccc(C(F)(F)F)cc1)n2[C@@H]1O[C@H](CO)[C@@H](O)[C@H]1O [Compound 6g, 8-(4′-Trifluoromethylphenylethynyl)adenosine] | – | – | – | – | – | – | –

Source: patent US20090299049A1, “Bicyclic Compounds and Their Use” (priority 2006, published 2009)
